Assay results as given in patent publication US11324714B2 (priority 2008, dated 2022).

Test system: advanced lymphomas
Test: Phase II multi-center trial in patients with advanced lymphomas
Type: in vivo, human
Procedure: A Phase II multi-center trial of SGLU-1 (darinaparsin) was conducted in patients diagnosed with advanced lymphomas. Eligible patients required therapy and received at least 1 prior therapy. Patients received 300 mg/m^2 of darinaparsin intravenously for 5 consecutive days every 28 days (1 cycle) and were then evaluated for efficacy and safety by standard criteria. Treatment continued until toxicity or progression. To date the study has accrued 22 patients (15 non Hodgkin's [NHL], 7 Hodgkin's); 12 are male and 10 are female. Median age at baseline was 60.5 years (range: 28-80), ECOG performance status was ≤2, and median number of prior therapies was 3 (range: 1-6). Thirteen subjects have received at least 2 cycles of SGLU-1 and are evaluable for efficacy. Of these, 1 (diagnosed with peripheral T-cell lymphoma (PTCL)) has achieved a complete response (CR), 3 (diagnosed with diffuse large B-cell, marginal zone, and Hodgkin's nodular sclerosis, respectively) have achieved partial responses (PRs), and 2 patients with NHL have achieved stable disease (SD). In the patient with marginal zone lymphoma who achieved PR, no evidence for macroscopic disease was present, but microscopic disease was detectable on random biopsies from normal appearing gastric mucosa. All responders had been heavily pretreated (PTCL: CHOP (cyclophosphamide, doxorubicin, vincristine, and prednisolone)×6, ICE (ifosfamide, carboplatin and etoposide)×1, and EPOCH (etoposide, vincristine, doxorubicin, cyclophosphamide, and prednisone)×2; diffuse B-cell: RCHOP (rituximab, cyclophosphamide, doxorubicin, vincristine, and prednisolone)×5, RICE (rituximab, ifosfamide, carboplatin and etoposide)×3, and radiation therapy; marginal zone: rituximab×8, RCVP (rituximab, cyclophosphamide, vincristine and prednisolone)×1, and gemcitabine×1; and Hodgkin's: ICE×1, CBV (cyclophosphamide, carmustine and etoposide)×1, gemcitabine+MDX-060 (Medarex)×6). A total of 49 cycles of SGLU-1 have been administered. The only Grade 3 adverse event (AE) considered drug-related was wheezing. A total of 12 subjects have reported 37 serious adverse events (SAEs) while on study. Of these, only 2 had SAEs that were considered drug-related (neutropenic fever, fall). […] Initial responses (1 CR, 3 PRs, 2 SDs) have been observed among 13 evaluable patients.

[1] = 300 mg/m^2 i.v. 5 consecutive days every 28 days, of 13 evaluable subjects

C[As](C)SC[C@H](NC(=O)CC[C@H](N)C(=O)O)C(=O)NCC(=O)O [SGLU-1, S-(dimethylarsino) glutathione]
complete response (CR) [1]: 1 patients | partial responses (PRs) [1]: 3 patients | Grade 3 adverse event (AE) considered drug-related (22 patients, 49 cycles): wheezing | serious adverse events (SAEs) reported (22 patients, 49 cycles): 37 | subjects reporting serious adverse events (SAEs) (22 patients, 49 cycles): 12 subjects | tolerability (heavily pretreated patients with advanced lymphoma): very well tolerated | subjects with SAEs considered drug-related (neutropenic fever, fall): 2 subjects
